Test results published in PubChem BioAssay (NCI).
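96-well plates; 48 h exposure; 5 concentrations. Endpoints by linear interpolation between flanking doses. Not reached: highest tested concentration assigned. TGI denotes the concentration required for complete inhibition of growth.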

Key:
Assay in all cases: growth of human tumour cells (NCI), 48 h
A498 renal = test system: A498 renal
CAKI-1 renal = test system: CAKI-1 renal
COLO 205 colon = test system: COLO 205 colon
DLD-1 colon = test system: DLD-1 colon
DMS 114 small cell lung = test system: DMS 114 small cell lung
EKVX NSCLC = test system: EKVX NSCLC
HOP-62 NSCLC = test system: HOP-62 NSCLC
HT29 colon = test system: HT29 colon
LXFL 529 NSCLC = test system: LXFL 529 NSCLC
RPMI-8226 leukemia = test system: RPMI-8226 leukemia
SK-MEL-28 melanoma = test system: SK-MEL-28 melanoma
SN12C renal = test system: SN12C renal
SNB-75 CNS = test system: SNB-75 CNS
SW-620 colon = test system: SW-620 colon
UACC-257 melanoma = test system: UACC-257 melanoma
HOP-18 NSCLC = test system: HOP-18 NSCLC
MCF7 breast = test system: MCF7 breast
NCI/ADR-RES ovarian = test system: NCI/ADR-RES ovarian
RXF-631 renal = test system: RXF-631 renal
SNB-78 CNS = test system: SNB-78 CNS

SMILES	TGI (A498 renal) [µM]	TGI (CAKI-1 renal) [µM]	TGI (COLO 205 colon) [µM]	TGI (DLD-1 colon) [µM]	TGI (DMS 114 small cell lung) [µM]	TGI (EKVX NSCLC) [µM]	TGI (HOP-62 NSCLC) [µM]	TGI (HT29 colon) [µM]	TGI (LXFL 529 NSCLC) [µM]	TGI (RPMI-8226 leukemia) [µM]	TGI (SK-MEL-28 melanoma) [µM]	TGI (SN12C renal) [µM]	TGI (SNB-75 CNS) [µM]	TGI (SW-620 colon) [µM]	TGI (UACC-257 melanoma) [µM]	TGI (HOP-18 NSCLC) [µM]	TGI (MCF7 breast) [µM]	TGI (NCI/ADR-RES ovarian) [µM]	TGI (RXF-631 renal) [µM]	TGI (SNB-78 CNS) [µM]
COC(=O)C(=O)C(C(C)=O)C(=O)C(=O)Nc1ccc(C)cc1C (stereo not drawn)	> 100	> 100	> 100	> 100	> 100	> 100	> 100	> 100	> 100	> 100	> 100	> 100	> 100	> 100	> 100	–	–	–	–	–
COc1ccc(N[C@@H]2c3cc4c(cc3C(c3cc(OC)c(O)c(OC)c3)[C@H]3C(=O)OCC32)OCO4)cc1OC (stereo partly drawn)	> 100	–	> 36.3	> 25.7	> 21.9	> 100	–	> 20.7	–	> 31.7	> 100	> 72.9	–	> 100	38.5	> 64.2	> 100	> 100	–	–
CCCCCC(/C=C/c1ncccc1OCCCCCC(=O)O)=N\NC1=NCCN1	–	> 100	> 100	–	> 100	> 100	> 100	> 100	> 100	> 100	> 100	> 100	> 100	> 100	–	–	–	–	–	–
N#CCCN(CCC#N)c1ccc(/C=C(/NC(=O)Nc2ccccc2Cl)NC(=O)c2cc([N+](=O)[O-])ccc2Cl)cc1	–	> 100	> 100	> 100	> 100	> 100	> 100	–	> 100	> 100	> 100	> 100	–	> 100	–	> 100	–	–	> 100	> 100
O=S(=O)(CF)OCCCCOS(=O)(=O)CF	> 100	> 100	> 100	–	> 100	> 100	–	> 100	> 100	> 100	> 100	> 100	> 100	> 100	–	> 100	–	–	> 100	> 100
Cn1c(=O)[nH]c2c(c1=O)C(=O)CN2	–	> 100	> 100	> 100	> 100	> 100	–	–	> 100	> 100	> 100	> 100	> 100	> 100	> 100	> 100	–	–	–	> 100
C[Si](C)(C)/C=C/CN1C(=O)CCC1=O	> 100	–	> 100	> 100	> 100	> 100	–	> 100	> 100	> 100	> 100	> 100	> 100	> 100	–	> 100	–	–	–	> 100
O=C(NCCN(CCNC(=O)c1cccc(=O)n1O)CCNC(=O)c1cccc(=O)n1O)c1cccc(=O)n1O	> 100	> 100	> 100	–	–	–	> 100	> 100	–	> 100	> 100	> 100	> 100	> 100	> 100	–	> 100	> 100	–	–
CN(C(=O)c1ccccc1)c1ccc2c(c1)C(=O)c1ccccc1C2=O	–	> 100	> 100	–	> 100	> 100	> 100	> 100	> 100	> 100	> 100	> 100	–	> 100	> 100	–	–	–	–	–
